The text below walks through data of US9366676B2, “Fluorescent chemical compounds having high selectivity for double stranded DNA, and methods for their use” (LIFE TECHNOLOGIES CORPORATION, priority 2005, dated 2016).

Structures are written as SMILES.

For one series, the system named is Jurkat cells. The experiment in a line: Flow cytometry with induced apoptosis cells (apoptosis time course). Format: cell-based, human. As to the method: Live Jurkat cells were split into 13 samples and each cell split was suspended in complete RMPI/10% FBS. Samples was treated with 10 μM Camptothecin in DMSO to induce apoptosis, or treated with DMSO alone to act as a control. Treatment and control time was 1, 2, 3, 4, 5, and 6 hours, and a time zero point. The cell suspensions were then incubated at 37° C./5% CO2 for a designated time. This type of experiment is sometimes called an “apoptosis time course”. Each split was washed once in complete RPMI media/10% Fetal Bovine Serum (FBS) and resuspended at 1×10^6 cells/mL in complete RPMI media with 10% FBS. […] A SYTOX® Blue stain vs compound (24) stain plot was made and a gate was made on compound (24) stain positive and SYTOX® Blue stain negative cells to gate out dead cells, and to ensure only live cells were analyzed. Fluorescence from the SYTOX® Blue stain was collected using 405 nm excitation laser with 450/50 bandpass and compound (24) stain fluorescence was collected at 585/42 bandpass using the 488 nm excitation laser as well as collected at the same 585/42 bandpass using the 532 nm excitation laser. […] The data was further analyzed using ModFit LT Flow Cytometry Modeling Software from Verity Software House, Inc. to look at ratio of G2/G1 and the CV of G1 phase and the percent sub-G0 population (apoptotic population).

The subject of series [1] is calf thymus double stranded DNA and ribosomal RNA. Kind of series: Determination of DNA/RNA fluorescence ratios. The conditions noted are these: for DNA/RNA (fluorescence ratio): 65 ug/mL calf thymus dsDNA vs 65 ug/mL ribosomal RNA, 10 mM Tris, 1 mM EDTA pH 7.5, ratio of 1 = no selectivity; for ex/em: emission: emission value, second number of ex/em cell; for ex/em: excitation: excitation value, first number of ex/em cell. The class given is binding. As to the method:
The tested compound was dissolved as a stock solution in DMSO at a concentration of about 0.1-1.0 mg/mL. The exact concentration is not critical. Three tubes are prepared, each containing the same 1-20 uL of stock solution. The first tube contained 10 mM Tris, 1 mM EDTA (pH 7.5) buffer; the second tube contained buffer and 65 ug/mL calf thymus double stranded DNA; and the third tube contained buffer and 65 ug/mL ribosomal RNA. The tubes were incubated at room temperature for 10-15 minutes with protection from light.
In some cases, it was necessary to dilute the sample to keep the fluorescence signal on-scale. In these cases, all three samples were diluted to the same degree. The ratio of the fluorescence of the compound in the presence of DNA and RNA was determined.
The following compounds were selected as representative of the inventive class of compounds. The fluorescence values in the presence of DNA and RNA were determined as described in the previous Example. […] A ratio of 1 would indicate no selectivity. Excitation and emission values are in nm

The subject of series [2] is Jurkat cells (human T-lymphocyte). Kind of series: Flow cytometry cell cycle staining, live Jurkat cells. The class given is cell-based. The conditions noted are these: 5 μM, 37° C., 60 minutes, ModFit. As to the method: Live Jurkat cells (human T-lymphocyte) were suspended at 1×10^6 cells/ml in RPMI media with 10% Fetal Bovine Serum (FBS). 5 μM Compound (20) was added to one mL cell suspension, and incubated at 37° C. for 60 minutes protected from light. Cells were processed using a Becton Dickinson (BD) LSRII Flow Cytometer. A Forward Scatter (FS) vs Side Scatter (SS) dual parameter plot was used to gate main cell population. On gated cells, a dual-parameter plot of Fluorescence-Width vs Fluorescence-Area was used for single cell discrimination gating. Single color fluorescence was collected at 530/30 bandpass using the 488 nm excitation laser, collecting 30,000 events at flow rate of about 200 events/second. The data was further analyzed using ModFit LT Flow Cytometry Modeling Software from Verity Software House, Inc. to determine the ratio of G2/G1 and the CV of G1 phase.

Another series concerns double stranded DNA. The conditions noted are these: cited from earlier work.
Another series relates to DNA. The conditions noted are these: cited from earlier work.

As for `CC[C@@]1(O)C(=O)OCc2c1cc1n(c2=O)Cc2cc3ccccc3nc2-1` [Camptothecin, reference compound], the “induction time at which sub-G0 population begins to show” value in the series with Jurkat cells (10 μM Camptothecin in DMSO, live Jurkat, time course 0-6 hours) amounted to 3 h.
With `COc1cccc(OC)c1-c1ccc2c(c1)sc(C=C1C=C(N3CCN(C)CC3)N(Cc3ccccc3)c3ccccc31)[n+]2C` [Compound 20], in series [1], the “DNA/RNA (fluorescence ratio)” value is given as 4, the “ex/em: emission” value is reported as 536 nm and the “ex/em: excitation” value stood at 510 nm. Also, the G1-phase in series [2] (488 nm excitation, 530/30 bandpass) was 47.08%. In addition, in series [2], the G2-phase is reported as 6.25%, the G2/G1 ratio amounted to 1.83 and the S-phase is on record as 46.67%.
Take `COc1cccc(OC)c1-c1ccc2c(c1)sc(C=C1C=C(SCCN(C)C)N(Cc3ccccc3)c3ccccc31)[n+]2C` [Compound 24]: in series [1], the “DNA/RNA (fluorescence ratio)” value was found to be 4.6, the “ex/em: emission” value is given as 570 nm and the “ex/em: excitation” value worked out at 520 nm. Moreover, in series [1] (Example 114), the excitation maximum stood at 520 nm. Besides, the emission maximum in series [1] (Example 114 (orange)) came to 569 nm. For the same compound, the “staining of sub-G0 (apoptotic) population” value in the series on Jurkat cells (10 μM, 37° C., 30 minutes, live Jurkat treated with 10 μM Camptothecin, 488 nm or 532 nm excitation) is listed as “stains live cells for identification of a sub-G0 population in apoptotic cells which increases with time of induction”.
Turning to `CC(=O)Nc1ccccc1-c1ccc2c(c1)sc(C=C1C=CN(Cc3ccccc3)c3ccccc31)[n+]2C` [Compound 94], in series [1], the “DNA/RNA (fluorescence ratio)” value is on record as 2.1, the “ex/em: emission” value was determined as 530 nm and the “ex/em: excitation” value is given as 513 nm.
For `C[n+]1c(C=C2C=CN(Cc3ccccc3)c3ccccc32)sc2cc(-c3cc4ccccc4s3)ccc21` [Compound 95] the same measures were 1.9, 591 nm and 550 nm.
For `C[n+]1c(C=C2C=CN(Cc3ccccc3)c3ccccc32)sc2cc(-c3cccs3)ccc21` [Compound 96] the same measures were 8, 555 nm and 527 nm.
For `C[n+]1c(C=C2C=CN(Cc3ccccc3)c3ccccc32)sc2cc(-c3cccnc3)ccc21` [Compound 97] the same measures were 3.7, 538 nm and 513 nm.
For `C[n+]1cccc(-c2ccc3c(c2)sc(C=C2C=CN(Cc4ccccc4)c4ccccc42)[n+]3C)c1` [Compound 99], in series [1], the “DNA/RNA (fluorescence ratio)” value came to 1.3, the “ex/em: emission” value is reported as 534 nm and the “ex/em: excitation” value came to 511 nm.
Consider `C[n+]1c(C=C2C=CN(Cc3ccccc3)c3ccccc32)sc2cc(-c3ccc(O)cc3)ccc21` [Compound 100], for which, in series [1], the “DNA/RNA (fluorescence ratio)” value turned out to be 8.1, the “ex/em: emission” value is reported as 551 nm and the “ex/em: excitation” value came to 513 nm.
For `CCCN(CCCN(C)C)C1=CC(=Cc2sc3cc(C(COC)COC)ccc3[n+]2C)c2ccccc2N1Cc1ccccc1` [Compound 101], in that order: 3, 527 nm and 503 nm.
With `COc1cccc(OC)c1-c1ccc2c(c1)sc(C=C1C=CN(Cc3ccccc3)C(SCCCN(C)C)=C1)[n+]2C` [Compound 102], in series [1], the “DNA/RNA (fluorescence ratio)” value is given as 3.3, the “ex/em: emission” value turned out to be 515 nm and the “ex/em: excitation” value was 475 nm.
In the case of `C[n+]1c(C=CC=C2C=CN(Cc3ccccc3)c3ccccc32)sc2cc(-c3ccccc3)ccc21` [Compound 103], in series [1], the “DNA/RNA (fluorescence ratio)” value is listed as 3.1, the “ex/em: emission” value turned out to be 537 nm and the “ex/em: excitation” value was 507 nm.
For `CCOC(=O)CCCOc1cccc(CN2C=CC(=CC=Cc3sc4cc(-c5ccccc5)ccc4[n+]3C)c3ccccc32)c1` [Compound 104] the same measures were 9, 666 nm and 652 nm.
For `COc1cccc(OC)c1-c1ccc2c(c1)sc(/C=C1\C=C(N(C)CCCC(=O)O)N(Cc3ccccc3)c3ccccc31)[n+]2C` [Compound 109] the same measures were 121, 525 nm and 496 nm.
With `COc1cccc(OC)c1-c1ccc2c(c1)sc(/C=C1\C=C(N(C)CCCC(=O)NCCOCCOCCOCCO)N(Cc3ccccc3)c3ccccc31)[n+]2C` [Compound 111], in series [1], the “DNA/RNA (fluorescence ratio)” value amounted to 64, the “ex/em: emission” value was 527 nm and the “ex/em: excitation” value is listed as 497 nm.
Regarding `CCOC(=O)CCCOc1cccc(CN2C=C/C(=C\c3sc4cc(-c5c(OC)cccc5OC)ccc4[n+]3C)c3ccccc32)c1` [Compound 112], in series [1], the “DNA/RNA (fluorescence ratio)” value is 191, the “ex/em: emission” value is reported as 541 nm and the “ex/em: excitation” value amounted to 500 nm.
Consider `CN(C)CCCN(CCCN(C)C)c1cc(C=C2Sc3ccccc3N2C)c2ccccc2[n+]1-c1ccccc1` [PicoGreen], for which, in the series on double stranded DNA, the “fluorescence enhancement upon binding to double stranded DNA” value is listed as “greater than 1000 fold”.
As to `CCCN(CCCN(C)C)c1cc(/C=C2/Sc3ccccc3N2C)c2ccccc2[n+]1-c1ccccc1` [SYBR Green I], in the series with DNA, the “fluorescence enhancement upon binding to DNA, relative to ethidium bromide” value is on record as “at least 10 fold” and the fluorescence quantum yield entry is listed as “about 0.8”.
With `CN1C(=Cc2cc[n+](C)c3ccccc23)Sc2ccccc21` [Thiazole orange, reference compound], in series [1], the “DNA/RNA (fluorescence ratio)” value worked out at 1, the “ex/em: emission” value worked out at 530 nm and the “ex/em: excitation” value amounted to 510 nm.
